In ChEMBL document CHEMBL1201862, “PubChem BioAssay data set” (2004):
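Five compound concentrations were applied to cells in 96-well plates for 48 hours; endpoints were derived by simple linear interpolation of the resulting dose-response curve. GI50 marks 50% less growth.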 The source made the active and inactive calls. Rule as the data show it: active = GI50 up to about 1.1 µM and inactive = higher. Where a SMILES comes first, the peptide text is derived from it. The star is where a group is joined. Cbz = O=C(OCc1ccccc1)*

Tests used:
Assay in all cases: inhibition of tumour cell growth, NCI panel, 48 h
RXF 393 = test system: RXF 393
NCI-H226 = test system: NCI-H226
MDA-N = test system: MDA-N
SF-295 = test system: SF-295
LOX IMVI = test system: LOX IMVI
SR = test system: SR
OVCAR-8 = test system: OVCAR-8
NCI-H460 = test system: NCI-H460
OVCAR-3 = test system: OVCAR-3
KM12 = test system: KM12
DU-145 = test system: DU-145
ACHN = test system: ACHN
UACC-257 = test system: UACC-257
TK-10 = test system: TK-10
SK-MEL-5 = test system: SK-MEL-5
MDA-MB-435 = test system: MDA-MB-435
SN12C = test system: SN12C
SNB-75 = test system: SNB-75
A498 = test system: A498
HCC 2998 = test system: HCC 2998

Compound | GI50 (RXF 393) | GI50 (NCI-H226) | GI50 (MDA-N) | GI50 (SF-295) | GI50 (LOX IMVI) | GI50 (SR) | GI50 (OVCAR-8) | GI50 (NCI-H460) | GI50 (OVCAR-3) | GI50 (KM12) | GI50 (DU-145) | GI50 (ACHN) | GI50 (UACC-257) | GI50 (TK-10) | GI50 (SK-MEL-5) | GI50 (MDA-MB-435) | GI50 (SN12C) | GI50 (SNB-75) | GI50 (A498) | GI50 (HCC 2998)
O=c1ccn(C2OC(CO)C(O)C2F)c(=O)n1Cc1ccccc1 (stereo unspecified) | > 100 µM (inactive) | > 100 µM (inactive) | > 100 µM (inactive) | > 100 µM (inactive) | > 100 µM (inactive) | > 100 µM (inactive) | > 100 µM (inactive) | > 10 µM (inactive) | > 100 µM (inactive) | > 100 µM (inactive) | > 100 µM (inactive) | > 100 µM (inactive) | > 100 µM (inactive) | > 100 µM (inactive) | > 100 µM (inactive) | > 100 µM (inactive) | > 100 µM (inactive) | > 100 µM (inactive) |  | 
NC(=O)c1ccc(NS(=O)(=O)c2ccc(N)cc2)nc1 |  | > 100 µM (inactive) | > 100 µM (inactive) | > 100 µM (inactive) | > 100 µM (inactive) |  | > 100 µM (inactive) | > 100 µM (inactive) | > 100 µM (inactive) | > 100 µM (inactive) | > 100 µM (inactive) | > 100 µM (inactive) | > 100 µM (inactive) | > 100 µM (inactive) | > 100 µM (inactive) | > 100 µM (inactive) | > 100 µM (inactive) | > 100 µM (inactive) | > 100 µM (inactive) | > 100 µM (inactive)
OCC(O)C(O)C(O)C(O)c1nc2cc(Cl)ccc2[nH]1 (stereo unspecified) | > 100 µM (inactive) | 26.2 µM (inactive) | > 100 µM (inactive) | 28.8 µM (inactive) | > 100 µM (inactive) |  | > 100 µM (inactive) | > 100 µM (inactive) | > 100 µM (inactive) | > 100 µM (inactive) | > 100 µM (inactive) | > 100 µM (inactive) | > 100 µM (inactive) | > 100 µM (inactive) | > 100 µM (inactive) | > 100 µM (inactive) | > 100 µM (inactive) | > 100 µM (inactive) | > 100 µM (inactive) | > 100 µM (inactive)
N#Cc1nc(C(=O)c2ccccc2)oc1N |  |  | > 100 µM (inactive) |  | > 100 µM (inactive) |  | > 100 µM (inactive) |  |  | > 100 µM (inactive) | > 100 µM (inactive) | > 100 µM (inactive) | > 100 µM (inactive) | > 100 µM (inactive) | > 100 µM (inactive) | > 100 µM (inactive) | > 100 µM (inactive) | 0.052 µM (active) | > 100 µM (inactive) | 
Cc1cc(NC(=O)NC(=O)c2ccccc2[N+](=O)[O-])ccc1Oc1ncc(Cl)cn1 | 0.0447 µM (active) | 0.232 µM (active) | < 0.01 µM (active) | 0.0598 µM (active) | 0.133 µM (active) |  | 0.303 µM (active) | 0.0548 µM (active) | 0.0361 µM (active) | 0.0519 µM (active) | 1.81 µM (inactive) | 1.88 µM (inactive) | 0.0431 µM (active) | 19.8 µM (inactive) | 0.0362 µM (active) | 0.0115 µM (active) | 0.492 µM (active) | 0.0456 µM (active) | 0.0604 µM (active) | 0.146 µM (active)
CSc1nc(Nc2ccccc2Cl)c2c(N)nn(C)c2n1 | 47.2 µM (inactive) | > 100 µM (inactive) | > 100 µM (inactive) | > 100 µM (inactive) | 16 µM (inactive) |  | 16.9 µM (inactive) | 9.51 µM (inactive) | > 100 µM (inactive) | > 100 µM (inactive) | > 100 µM (inactive) | 13.1 µM (inactive) | > 100 µM (inactive) | > 100 µM (inactive) | > 100 µM (inactive) | > 100 µM (inactive) | > 100 µM (inactive) | > 10 µM (inactive) | > 100 µM (inactive) | > 100 µM (inactive)
Cc1[nH]c(-c2ccccc2)c(-c2ccc(Cl)cc2)c1C(=O)ONC(=O)c1ccccc1 | 2.12 µM (inactive) | 3.61 µM (inactive) | 2 µM (inactive) | 2.1 µM (inactive) | 1.39 µM (inactive) |  | 4 µM (inactive) | 2.11 µM (inactive) | 3.2 µM (inactive) | 7.24 µM (inactive) | 1.58 µM (inactive) | 1.77 µM (inactive) | 6.82 µM (inactive) | 2.81 µM (inactive) | 3.41 µM (inactive) | 2.47 µM (inactive) | 2.25 µM (inactive) | 3.56 µM (inactive) | 6.24 µM (inactive) | 3.32 µM (inactive)
COC(=O)[C@@H]1CN(C(C)=O)C(=O)N1 | > 100 µM (inactive) | > 100 µM (inactive) | > 100 µM (inactive) | > 100 µM (inactive) | > 100 µM (inactive) |  | > 100 µM (inactive) | > 100 µM (inactive) | > 100 µM (inactive) | > 100 µM (inactive) | > 100 µM (inactive) | > 100 µM (inactive) | > 100 µM (inactive) | > 100 µM (inactive) | > 100 µM (inactive) | > 100 µM (inactive) | > 100 µM (inactive) | > 100 µM (inactive) | > 100 µM (inactive) | > 100 µM (inactive)
CCOC(=O)CCC(NC(=O)CNC(=O)CNC(=O)C(CCC(=O)OCC)NC(=O)C(CCC(=O)OCC)NC(=O)C(CCC(=O)OCC)NC(=O)OCc1ccccc1)C(=O)NC(CCC(=O)OCC)C(=O)NC(CCC(=O)OCC)C(=O)OCC (stereo unspecified) (Cbz-E(OEt)E(OEt)E(OEt)GGE(OEt)E(OEt)E(OEt)-OEt; configuration not given here) | > 75 µM (inactive) |  | > 75 µM (inactive) | > 75 µM (inactive) | > 75 µM (inactive) | > 75 µM (inactive) | > 75 µM (inactive) | > 75 µM (inactive) |  | > 75 µM (inactive) | > 75 µM (inactive) | > 75 µM (inactive) | > 75 µM (inactive) | > 75 µM (inactive) | > 75 µM (inactive) | > 75 µM (inactive) | > 75 µM (inactive) | > 75 µM (inactive) |  | 
CC(C)CNc1nc(N)nc(O)c1NC=O | > 100 µM (inactive) | > 100 µM (inactive) | > 100 µM (inactive) | > 100 µM (inactive) | > 100 µM (inactive) |  | > 100 µM (inactive) | > 100 µM (inactive) | > 100 µM (inactive) | > 100 µM (inactive) | > 100 µM (inactive) | > 100 µM (inactive) | > 100 µM (inactive) | > 100 µM (inactive) | > 100 µM (inactive) | > 100 µM (inactive) | > 100 µM (inactive) | > 100 µM (inactive) | > 100 µM (inactive) | > 100 µM (inactive)
CC(C)(C)c1cc(/C=C/C(=O)CC(=O)/C=C/c2cc(C(C)(C)C)c(O)c(C(C)(C)C)c2)cc(C(C)(C)C)c1O | > 50 µM (inactive) | > 50 µM (inactive) | > 50 µM (inactive) | > 50 µM (inactive) | > 50 µM (inactive) |  | > 50 µM (inactive) | > 50 µM (inactive) | > 50 µM (inactive) | 28.4 µM (inactive) | > 50 µM (inactive) | > 50 µM (inactive) | > 50 µM (inactive) | > 50 µM (inactive) | > 50 µM (inactive) | > 50 µM (inactive) | > 50 µM (inactive) | > 50 µM (inactive) |  | 
